# Measurements from patent US20260167637A1, “NLRP3 INFLAMMASOME INHIBITOR AND USE THEREOF” (TransThera Sciences (Nanjing), Inc., priority 2022, published 2026).
# Key:
# [1] = Stability in canine liver microsomes; type: in vitro ADME; details: canine liver microsomes 0.5 mg protein/mL, 1 μM test substance, β-NADPH 1 mM, 37° C.; for microsomal CLint at 1 μM / half-life at 1 μM: dog; for half-life at 1 μM: read-out: Canine t1/2
# Method in brief: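 Incubations at 37 °C used canine or rat liver microsomes, phosphate buffer containing 3 mM MgCl2, NADPH (no-NADPH controls at 0 and 60 min), and compound from a 10 μM working solution.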
# [2] = target: T1, hERG potassium ion channel (Homo sapiens, UniProt Q12809); experiment: Inhibition of hERG potassium ion channel, whole-cell patch clamp in HEK-293 cells; type: cell-based; details: HEK-293 cells stably expressing hERG, tail current, room temperature
# T1 construct: expressed in transfected cells
# Experimental: Experimental Example 5: Inhibition of hERG Potassium Ion Channel by Compounds
# 1.1. An HEK-293 cell line stably expressing the hERG potassium channel was cultured at 37° C. with 5% carbon dioxide in DMEM medium containing 10% fetal bovine serum and 0.8 mg/mL G418. The cell density must not exceed 80%.
# 1.2. Before patch-clamp testing, cells were dissociated with TrypLE™ Express, and 4×10^3 cells were applied to a coverslip. After 18 h, testing was performed.
# 2.1. Blank control: DMSO stock solution.
# 2.2. Positive control: An appropriate amount of cisapride was weighed out and prepared into a 10 mM stock solution using dimethyl sulfoxide (DMSO). The stock solution was aliquoted, and the aliquots were stored at −20° C.
# 2.3. Compound: An appropriate amount of the compound was weighed out, and the required volume of DMSO was calculated using the formula DMSO volume=actual amount×purity (content)/(molecular weight×theoretical concentration), and measured out using a pipette. The compound that had been weighed out was dissolved in the DMSO that had been measured out using a pipette. Meanwhile, the mass of the DMSO was measured. The actual stock solution concentration was calculated based on the amount of DMSO finally used.
# Before hERG channel current testing, the blank control stock solution was diluted with an appropriate amount of extracellular liquid to prepare a working solution. The positive control stock solution and the compound stock solution were diluted with an appropriate amount of extracellular liquid to prepare working solutions. […]
# Recording electrodes were prepared from capillary glass tubes using a microelectrode puller. […] Under an inverted microscope, a microelectrode manipulator was used to immerse the electrode in extracellular liquid, and the electrode resistance (Rpip) was recorded. […] Then, slow capacitance compensation was performed, and experimental parameters such as membrane capacitance (Cm) and series resistance (Rs) were recorded. […]
# T1 sequence (Q12809 whole entry): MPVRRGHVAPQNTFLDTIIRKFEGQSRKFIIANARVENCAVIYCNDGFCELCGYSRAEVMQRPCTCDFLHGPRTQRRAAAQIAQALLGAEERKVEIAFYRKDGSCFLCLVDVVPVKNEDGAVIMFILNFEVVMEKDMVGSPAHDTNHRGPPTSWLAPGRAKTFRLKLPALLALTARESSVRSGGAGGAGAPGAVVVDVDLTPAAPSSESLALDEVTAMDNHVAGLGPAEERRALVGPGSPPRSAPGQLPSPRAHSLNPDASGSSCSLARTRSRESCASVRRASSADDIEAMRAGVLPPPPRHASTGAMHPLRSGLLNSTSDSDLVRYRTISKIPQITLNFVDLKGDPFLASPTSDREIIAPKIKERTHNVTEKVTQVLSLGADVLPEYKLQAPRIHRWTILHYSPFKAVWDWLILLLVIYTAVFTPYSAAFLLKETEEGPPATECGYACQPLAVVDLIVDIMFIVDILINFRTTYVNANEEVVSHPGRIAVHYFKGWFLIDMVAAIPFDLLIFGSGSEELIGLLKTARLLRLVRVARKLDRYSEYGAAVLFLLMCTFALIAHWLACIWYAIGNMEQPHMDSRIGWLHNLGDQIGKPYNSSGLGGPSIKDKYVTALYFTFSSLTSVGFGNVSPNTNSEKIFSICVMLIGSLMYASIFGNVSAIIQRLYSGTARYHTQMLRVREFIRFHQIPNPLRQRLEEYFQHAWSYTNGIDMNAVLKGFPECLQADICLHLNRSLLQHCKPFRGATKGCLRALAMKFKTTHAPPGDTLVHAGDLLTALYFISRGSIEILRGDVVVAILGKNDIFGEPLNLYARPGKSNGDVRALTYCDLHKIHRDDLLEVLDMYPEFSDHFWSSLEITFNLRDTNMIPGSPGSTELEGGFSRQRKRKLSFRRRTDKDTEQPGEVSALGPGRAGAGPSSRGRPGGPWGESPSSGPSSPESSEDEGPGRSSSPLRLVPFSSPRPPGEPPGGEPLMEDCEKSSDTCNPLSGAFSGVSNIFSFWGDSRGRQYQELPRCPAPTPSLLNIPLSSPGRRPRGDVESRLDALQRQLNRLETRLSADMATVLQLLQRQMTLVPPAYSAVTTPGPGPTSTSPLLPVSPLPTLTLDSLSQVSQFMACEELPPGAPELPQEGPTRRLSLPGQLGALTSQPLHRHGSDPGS
SMILES,Canine t1/2 [1],IC50 [2] [µM],microsomal CLint at 1 μM [1] [µL/min/mg],half-life at 1 μM [1] [h]
"C#Cc1ccc(-c2nnc(N[C@@H]3CCCN(C)C3)c(=O)n2C)c(O)c1 [Compound 23, (R)-3-(4-ethynyl-2-hydoxyphenyl)-4-methyl-6-((1-methylpiperidin-3-yl)amino)-1,2,4-triazin-5(4H)-one]",→∞,> 10,–,–
"C#Cc1ccc(-c2nnc(N[C@@H]3CCCN(CCO)C3)cc2C2CC2)c(O)c1 [Compound 45, (R)-2-(4-Cyclopropyl-6-((1-(2-hydroxyethyl)piperidin-3-yl)amino)pyridazin-3-yl)-5-ethynylphenol]",–,–,1.4,16.5
"C#Cc1ccc(-c2nnc(N[C@@H]3CCCN(C)C3)cc2C(C)C)c(O)c1 [Compound 81, (R)-5-ethynyl-2-(4-isopropyl-6-((1-methylpiperidin-3-yl)amino)pyridazin-3-yl)phenol]",–,> 10,5,4.62
"C#Cc1ccc(-c2nnc(N[C@@H]3CCCN(C)C3)c(C#N)c2C)c(O)c1 [Compound 103, (R)-6-(4-ethynyl-2-hydroxyphenyl)-5-methyl-3-((1-methylpiperidin-3-yl)amino)pyridazine-4-carbonitrile]",–,> 10,8.4,2.75
